Source: ChEMBL document CHEMBL1136002 (J Med Chem, 2002)

What was measured:
[1] = molecular target: T1, Sodium-dependent serotonin transporter (Homo sapiens, UniProt P31645); experiment: Ratio of Ki value towards Serotonin transporter (SERT) to that of Dopamine transporter (DAT)
Target sequence in this assay (P31645 whole entry, looked up): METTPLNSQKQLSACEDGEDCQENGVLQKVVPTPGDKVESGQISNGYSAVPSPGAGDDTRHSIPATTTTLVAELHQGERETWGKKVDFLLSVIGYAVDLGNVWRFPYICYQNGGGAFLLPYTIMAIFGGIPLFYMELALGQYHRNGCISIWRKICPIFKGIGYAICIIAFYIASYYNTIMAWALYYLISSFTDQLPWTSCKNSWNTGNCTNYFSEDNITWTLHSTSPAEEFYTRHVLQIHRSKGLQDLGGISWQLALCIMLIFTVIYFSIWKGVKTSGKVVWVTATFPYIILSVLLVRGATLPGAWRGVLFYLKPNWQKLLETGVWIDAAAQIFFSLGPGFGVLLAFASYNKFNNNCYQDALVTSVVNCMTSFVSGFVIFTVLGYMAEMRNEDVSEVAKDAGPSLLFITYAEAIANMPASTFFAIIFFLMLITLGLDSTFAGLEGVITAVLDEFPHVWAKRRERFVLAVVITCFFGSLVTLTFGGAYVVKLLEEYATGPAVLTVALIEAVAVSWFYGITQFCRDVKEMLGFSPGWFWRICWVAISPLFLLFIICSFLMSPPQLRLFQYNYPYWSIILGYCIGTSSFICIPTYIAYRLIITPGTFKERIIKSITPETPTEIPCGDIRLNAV

[2] = molecular target: T2, Sodium-dependent dopamine transporter (Homo sapiens, UniProt Q01959); experiment: Binding affinity towards dopamine transporter (DAT) by using [125I]RTI-55 radioligand
[3] = molecular target: T1, Sodium-dependent serotonin transporter; experiment: Binding affinity for serotonin transporter (SERT) using [125I]RTI-55
Target sequence in this assay (P31645 whole entry): as the sequence (P31645 whole entry, looked up) above

[4] = molecular target: T2, Sodium-dependent dopamine transporter; experiment: Compound was tested for the inhibition of dopamine (DA) reuptake; assay type: functional
[5] = molecular target: T1, Sodium-dependent serotonin transporter; experiment: Compound was tested for the inhibition of serotonin (5-HT) reuptake; assay type: functional
Target sequence in this assay (P31645 whole entry): as the sequence (P31645 whole entry, looked up) above

[6] = molecular target: Sodium-dependent noradrenaline transporter (Homo sapiens, UniProt P23975); experiment: Compound was tested for the inhibition of norepinephrine (NE) reuptake; assay type: functional
Chain of Sodium-dependent noradrenaline transporter (P23975 whole entry): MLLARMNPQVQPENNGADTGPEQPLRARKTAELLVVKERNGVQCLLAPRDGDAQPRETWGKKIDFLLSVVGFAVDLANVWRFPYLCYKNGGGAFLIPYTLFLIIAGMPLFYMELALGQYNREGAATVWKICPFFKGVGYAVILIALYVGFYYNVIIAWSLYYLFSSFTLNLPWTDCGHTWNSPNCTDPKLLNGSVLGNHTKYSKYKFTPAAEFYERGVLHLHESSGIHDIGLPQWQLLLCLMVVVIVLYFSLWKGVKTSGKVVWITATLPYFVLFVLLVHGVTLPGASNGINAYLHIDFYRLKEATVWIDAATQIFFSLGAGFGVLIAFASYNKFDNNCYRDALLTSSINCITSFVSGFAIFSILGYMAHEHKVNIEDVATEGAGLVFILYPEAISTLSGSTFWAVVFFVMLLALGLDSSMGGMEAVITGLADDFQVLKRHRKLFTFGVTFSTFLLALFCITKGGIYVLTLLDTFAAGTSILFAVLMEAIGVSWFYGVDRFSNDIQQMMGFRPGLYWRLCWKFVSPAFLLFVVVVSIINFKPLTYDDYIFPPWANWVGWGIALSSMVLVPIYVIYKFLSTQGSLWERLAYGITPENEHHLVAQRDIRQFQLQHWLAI

T2 sequence (Q01959 whole entry): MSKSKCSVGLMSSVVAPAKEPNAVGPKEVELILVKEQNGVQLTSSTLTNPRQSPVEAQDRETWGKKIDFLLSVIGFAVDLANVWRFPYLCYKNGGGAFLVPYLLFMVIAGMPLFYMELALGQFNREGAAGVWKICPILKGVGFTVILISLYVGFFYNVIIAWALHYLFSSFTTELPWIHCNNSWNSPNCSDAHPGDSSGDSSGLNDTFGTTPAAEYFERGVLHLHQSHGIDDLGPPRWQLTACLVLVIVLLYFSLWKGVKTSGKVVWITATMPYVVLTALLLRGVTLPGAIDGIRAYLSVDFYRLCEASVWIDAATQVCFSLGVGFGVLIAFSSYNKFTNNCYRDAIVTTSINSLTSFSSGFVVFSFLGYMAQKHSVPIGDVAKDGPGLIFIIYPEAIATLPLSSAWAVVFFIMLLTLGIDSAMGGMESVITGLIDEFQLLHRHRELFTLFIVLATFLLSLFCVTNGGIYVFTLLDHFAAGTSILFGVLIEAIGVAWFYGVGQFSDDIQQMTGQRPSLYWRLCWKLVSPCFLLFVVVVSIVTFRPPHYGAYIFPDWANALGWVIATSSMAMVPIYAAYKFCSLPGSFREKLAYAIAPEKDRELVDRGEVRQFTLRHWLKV

Question: What does the source list for `Fc1ccc(C(OCCC2CCN(C/C=C/c3cccs3)CC2)c2ccc(F)cc2)cc1`?
Answer: Ratio [1]: 35; Ki [2]: 1.3 nM; Ki [3]: 45 nM

Question: Which results are given for `Fc1ccc(C(OCCC2CCN(C/C=C/c3ccccc3)CC2)c2ccc(F)cc2)cc1`?
Answer: Ratio [1]: 104; Ki [2]: 0.45 nM; Ki [3]: 47 nM

Question: For `Fc1ccc(C(OCCC2CCN(Cc3cc4ccccc4[nH]3)CC2)c2ccc(F)cc2)cc1`, which Ratio [1] is on record?
Answer: The Ratio was 121.

Question: What about the Ki [3] of the same molecule?
Answer: Its Ki is 88 nM.

Question: What does the source list for `Fc1ccc(C(OCCC2CCN(Cc3cccc4ccccc34)CC2)c2ccc(F)cc2)cc1`?
Answer: Ratio [1]: 23; Ki [2]: 16 nM; Ki [3]: 370 nM

Question: What does the source list for `Fc1ccc(C(OCCC2CCN(CCCc3ccccc3)CC2)c2ccc(F)cc2)cc1`?
Answer: Ratio [1]: 65; Ki [2]: 1.1 nM; Ki [3]: 68 nM

Question: For `Fc1ccc(C(OCCC2CCN(Cc3cc4ccccc4o3)CC2)c2ccc(F)cc2)cc1`, which Ratio [1] is on record?
Answer: The Ratio was 84.

Question: And the Ki [3]?
Answer: Its Ki is 85 nM.

Question: With `Fc1ccc(C(OCCC2CCN(Cc3cc4ccccc4s3)CC2)c2ccc(F)cc2)cc1` as the molecule, how does the IC50 [4] read?
Answer: The IC50 was 11.9 nM.

Question: What about the Ratio [1] of the same molecule?
Answer: The Ratio was 153.

Question: What about the IC50 [5] of the same molecule?
Answer: The IC50 was 1040 nM.

Question: What about the IC50 [6] of the same molecule?
Answer: Its IC50 is 260 nM.

Question: What about the Ki [3] of the same molecule?
Answer: Its Ki is 246 nM.

Question: Which Ratio [1] does the source give for `Fc1ccc(C(OCCC2CCN(CC#Cc3ccccc3)CC2)c2ccc(F)cc2)cc1` here?
Answer: Its Ratio is 31.

Question: And the Ki [3]?
Answer: The Ki was 164 nM.

Question: How did the IC50 [4] turn out when `Fc1ccc(C(OCCC2CCN(Cc3ccc4ccccc4c3)CC2)c2ccc(F)cc2)cc1` was run?
Answer: The IC50 was 7.2 nM.

Question: And the Ratio [1]?
Answer: The Ratio was 323.

Question: What about the IC50 [5] of the same molecule?
Answer: Its IC50 is 277 nM.

Question: What about the IC50 [6] of the same molecule?
Answer: The IC50 was 93 nM.

Question: What about the Ki [3] of the same molecule?
Answer: The Ki was 229 nM.

Question: Which results are given for `Fc1ccc(C(OCCC2CCN(C/C=C/c3ccco3)CC2)c2ccc(F)cc2)cc1`?
Answer: Ratio [1]: 41; Ki [2]: 0.99 nM; Ki [3]: 41 nM
